Measured values from BindingDB's records for patent US20230391758 (Merck Sharp & Dohme, 2023).
pEC50: −log10 of the molar value.

Biological target: T1, Ceramide glucosyltransferase (Homo sapiens, UniProt Q16739)
T1 sequence (Q16739 whole entry): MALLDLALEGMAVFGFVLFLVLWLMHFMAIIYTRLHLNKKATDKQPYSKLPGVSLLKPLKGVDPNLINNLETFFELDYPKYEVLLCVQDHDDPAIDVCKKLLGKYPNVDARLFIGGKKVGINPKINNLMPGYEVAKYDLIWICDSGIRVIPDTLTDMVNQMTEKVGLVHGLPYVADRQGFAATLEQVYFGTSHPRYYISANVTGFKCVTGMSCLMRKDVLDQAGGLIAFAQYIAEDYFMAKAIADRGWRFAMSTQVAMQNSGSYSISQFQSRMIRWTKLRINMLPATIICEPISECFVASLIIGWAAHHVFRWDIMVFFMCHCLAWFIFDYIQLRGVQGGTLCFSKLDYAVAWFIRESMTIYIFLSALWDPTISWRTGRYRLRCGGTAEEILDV
Experiment: UDP-Glo Glucosylceramide Synthase Biochemical Assay
Method: Using Promega's UDP-Glo™ Glycosyltransferase assay kit (Promega Corporation, Madison, WI, USA (Promega)), GCS activity was indirectly measured by detecting the amount of UDP produced. An aliquot of GCS enzyme (1.5 μg crude golgi preparation, total protein) and titrated test compound were aliquoted to each well and incubated for 30 minutes at room temperature. Substrate mixture was prepared by mixing C6 ceramide (Avanti Polar Lipids, Alabaster, AL USA (Avanti)) (micelles prepared at 0.6 mM in 0.6 mM DOPC) and UDP-glucose (20 μ.M; Promega), at concentrations equivalent to 2×Km, in assay buffer (25 mM HEPES (pH 7.5), 50 mM KCl, 5 mM MgCl2). An equivalent volume of substrate mixture was then added to each well. Following a 20 h incubation at room temperature to allow for GCS turnover of substrate, an equal volume of UDP detection reagent (Promega) was added to each well and incubated for an additional 75 minutes at room temperature to simultaneously convert the accumulated UDP product into ATP and generate light in a luciferase reaction.

pEC50: 8.74
SMILES: CCCOc1ccccc1-c1cccc2cc(C(=O)Nc3cccnc3)oc12 [US20230391758, Compound 10]
